Columns and labels:
[1] = target: Casein kinase II subunit alpha (Homo sapiens, UniProt P68400); conditions: at 10 µM
[2] = target: Serine/threonine-protein kinase pim-3 (Homo sapiens) (UniProt Q86V86); test: Selectivity interaction (Kinase panel (DSF assay)) EUB0001559a PIM3
[3] = target: Mitogen-activated protein kinase kinase kinase 20 (Homo sapiens) (UniProt Q9NYL2); test: Selectivity interaction (KinomeScan (DiscoverX)) EUB0000695a MAP3K20; conditions: at 100 nM
[4] = test system: Epidermal growth factor receptor (Homo sapiens), P00533 [UNDEFINED MUTATION]; test: Selectivity interaction (KinomeScan (DiscoverX)) EUB0000666a EGFR; conditions: at 10 µM
Chain of Epidermal growth factor receptor (Homo sapiens), P00533 [UNDEFINED MUTATION] (P00533 whole entry, looked up, change not shown): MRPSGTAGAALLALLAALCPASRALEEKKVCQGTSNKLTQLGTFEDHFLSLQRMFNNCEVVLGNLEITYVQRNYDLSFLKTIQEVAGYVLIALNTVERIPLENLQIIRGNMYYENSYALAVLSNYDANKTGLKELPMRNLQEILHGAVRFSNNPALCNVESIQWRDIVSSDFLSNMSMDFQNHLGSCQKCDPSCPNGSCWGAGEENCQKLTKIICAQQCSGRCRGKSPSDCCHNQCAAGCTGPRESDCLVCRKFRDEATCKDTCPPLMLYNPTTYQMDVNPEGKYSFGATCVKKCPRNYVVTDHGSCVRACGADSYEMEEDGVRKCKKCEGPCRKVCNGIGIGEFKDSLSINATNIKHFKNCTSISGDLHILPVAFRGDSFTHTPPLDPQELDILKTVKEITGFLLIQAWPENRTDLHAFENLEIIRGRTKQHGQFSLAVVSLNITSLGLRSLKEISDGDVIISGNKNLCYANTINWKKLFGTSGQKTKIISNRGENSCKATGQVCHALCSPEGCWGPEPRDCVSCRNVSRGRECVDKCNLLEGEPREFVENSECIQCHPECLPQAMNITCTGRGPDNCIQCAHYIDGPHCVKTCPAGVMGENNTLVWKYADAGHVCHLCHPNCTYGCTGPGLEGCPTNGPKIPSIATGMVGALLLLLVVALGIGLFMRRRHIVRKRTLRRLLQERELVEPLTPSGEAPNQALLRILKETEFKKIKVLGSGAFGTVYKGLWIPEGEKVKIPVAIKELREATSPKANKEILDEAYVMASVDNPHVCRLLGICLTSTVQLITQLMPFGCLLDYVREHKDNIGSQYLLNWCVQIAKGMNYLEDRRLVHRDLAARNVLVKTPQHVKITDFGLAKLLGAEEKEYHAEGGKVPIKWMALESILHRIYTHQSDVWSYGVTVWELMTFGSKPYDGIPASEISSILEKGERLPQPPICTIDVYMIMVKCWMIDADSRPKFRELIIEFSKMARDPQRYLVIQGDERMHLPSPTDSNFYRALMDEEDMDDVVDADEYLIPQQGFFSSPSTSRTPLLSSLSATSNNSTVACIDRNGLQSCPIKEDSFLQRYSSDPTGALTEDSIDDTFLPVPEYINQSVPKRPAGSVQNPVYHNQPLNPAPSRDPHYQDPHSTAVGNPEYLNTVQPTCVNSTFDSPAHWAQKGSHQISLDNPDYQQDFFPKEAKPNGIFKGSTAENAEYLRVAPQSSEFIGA

[5] = target: T1, Serine/threonine-protein kinase ULK2 (Homo sapiens) (UniProt Q8IYT8); test: Selectivity interaction (KinomeScan (DiscoverX)) EUB0000666a ULK2; conditions: at 10 µM
T1 sequence (whole entry): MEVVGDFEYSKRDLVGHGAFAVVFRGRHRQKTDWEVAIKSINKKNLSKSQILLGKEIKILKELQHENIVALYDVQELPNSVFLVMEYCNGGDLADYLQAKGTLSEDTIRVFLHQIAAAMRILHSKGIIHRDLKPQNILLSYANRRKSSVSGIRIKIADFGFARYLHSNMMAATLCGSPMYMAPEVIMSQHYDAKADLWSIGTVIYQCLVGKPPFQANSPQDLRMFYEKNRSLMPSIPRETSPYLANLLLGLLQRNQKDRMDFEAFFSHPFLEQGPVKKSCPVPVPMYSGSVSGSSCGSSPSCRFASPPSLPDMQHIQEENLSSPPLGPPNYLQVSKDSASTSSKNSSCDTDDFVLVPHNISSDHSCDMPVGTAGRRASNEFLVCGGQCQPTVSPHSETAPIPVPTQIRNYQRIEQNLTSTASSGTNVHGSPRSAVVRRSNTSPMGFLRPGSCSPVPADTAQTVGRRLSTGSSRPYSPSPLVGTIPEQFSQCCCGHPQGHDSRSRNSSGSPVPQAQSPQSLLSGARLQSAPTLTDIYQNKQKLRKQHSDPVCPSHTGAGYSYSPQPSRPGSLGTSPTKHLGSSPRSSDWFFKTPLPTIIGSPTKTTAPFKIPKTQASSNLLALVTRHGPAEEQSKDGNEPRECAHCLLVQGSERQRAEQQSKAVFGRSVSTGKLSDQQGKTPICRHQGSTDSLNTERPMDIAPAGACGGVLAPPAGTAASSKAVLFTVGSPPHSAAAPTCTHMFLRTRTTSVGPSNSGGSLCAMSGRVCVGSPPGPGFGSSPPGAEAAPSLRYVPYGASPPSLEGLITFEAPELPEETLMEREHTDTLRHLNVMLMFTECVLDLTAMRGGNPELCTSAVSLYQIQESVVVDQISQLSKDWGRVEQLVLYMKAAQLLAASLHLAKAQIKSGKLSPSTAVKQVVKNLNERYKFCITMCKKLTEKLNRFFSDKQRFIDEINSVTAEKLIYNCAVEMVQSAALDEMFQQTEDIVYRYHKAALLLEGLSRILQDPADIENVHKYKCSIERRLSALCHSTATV

[6] = target: T2, Mitogen-activated protein kinase kinase kinase 19 (Homo sapiens) (UniProt Q56UN5); test: Selectivity interaction (KinomeScan (DiscoverX)) EUB0001619a MAP3K19; conditions: at 1 µM
T2 sequence (whole entry): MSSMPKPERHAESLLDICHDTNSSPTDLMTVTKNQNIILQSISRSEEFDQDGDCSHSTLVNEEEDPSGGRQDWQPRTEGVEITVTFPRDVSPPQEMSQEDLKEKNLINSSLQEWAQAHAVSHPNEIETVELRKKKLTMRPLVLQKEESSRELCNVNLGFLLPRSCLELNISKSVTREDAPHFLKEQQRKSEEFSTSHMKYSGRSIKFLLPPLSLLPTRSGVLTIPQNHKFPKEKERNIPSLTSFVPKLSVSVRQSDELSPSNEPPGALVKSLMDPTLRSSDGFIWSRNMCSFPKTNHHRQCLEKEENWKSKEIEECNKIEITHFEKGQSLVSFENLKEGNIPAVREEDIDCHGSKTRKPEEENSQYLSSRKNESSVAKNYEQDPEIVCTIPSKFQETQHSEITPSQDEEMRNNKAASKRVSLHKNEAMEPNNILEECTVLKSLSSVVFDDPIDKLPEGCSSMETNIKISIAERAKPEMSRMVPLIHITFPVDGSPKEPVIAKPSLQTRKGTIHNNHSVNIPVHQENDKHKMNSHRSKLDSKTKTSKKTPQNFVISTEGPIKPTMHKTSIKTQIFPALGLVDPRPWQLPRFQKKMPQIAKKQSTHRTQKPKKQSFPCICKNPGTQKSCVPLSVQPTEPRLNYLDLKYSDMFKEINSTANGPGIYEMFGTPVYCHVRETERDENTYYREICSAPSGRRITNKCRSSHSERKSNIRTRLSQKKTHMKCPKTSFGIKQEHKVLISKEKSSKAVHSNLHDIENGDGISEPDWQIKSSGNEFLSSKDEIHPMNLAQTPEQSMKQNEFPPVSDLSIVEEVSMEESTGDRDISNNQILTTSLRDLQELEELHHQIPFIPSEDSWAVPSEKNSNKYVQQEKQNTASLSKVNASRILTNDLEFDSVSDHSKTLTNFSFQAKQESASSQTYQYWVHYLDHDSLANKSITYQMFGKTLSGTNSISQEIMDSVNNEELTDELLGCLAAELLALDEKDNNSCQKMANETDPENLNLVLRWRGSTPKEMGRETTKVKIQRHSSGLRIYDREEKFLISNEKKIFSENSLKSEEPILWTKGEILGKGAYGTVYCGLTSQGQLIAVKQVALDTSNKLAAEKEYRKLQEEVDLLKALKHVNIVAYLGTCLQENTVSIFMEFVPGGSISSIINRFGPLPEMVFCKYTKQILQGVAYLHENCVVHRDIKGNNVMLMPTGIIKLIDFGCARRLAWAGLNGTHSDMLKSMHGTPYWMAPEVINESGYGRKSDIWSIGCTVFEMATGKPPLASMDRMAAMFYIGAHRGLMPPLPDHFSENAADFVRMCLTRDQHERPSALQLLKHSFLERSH

[7] = target: Serine/threonine-protein kinase MARK2 (Homo sapiens) (UniProt Q7KZI7); test: Selectivity interaction (ActivX KiNativ screen (ex vivo kinase selectivity in human PBMCs)) EUB0001619a MARK2; format: cell-based; conditions: PBMC, at 1 µM
Chain of Serine/threonine-protein kinase MARK2 (Homo sapiens) (Q7KZI7 whole entry): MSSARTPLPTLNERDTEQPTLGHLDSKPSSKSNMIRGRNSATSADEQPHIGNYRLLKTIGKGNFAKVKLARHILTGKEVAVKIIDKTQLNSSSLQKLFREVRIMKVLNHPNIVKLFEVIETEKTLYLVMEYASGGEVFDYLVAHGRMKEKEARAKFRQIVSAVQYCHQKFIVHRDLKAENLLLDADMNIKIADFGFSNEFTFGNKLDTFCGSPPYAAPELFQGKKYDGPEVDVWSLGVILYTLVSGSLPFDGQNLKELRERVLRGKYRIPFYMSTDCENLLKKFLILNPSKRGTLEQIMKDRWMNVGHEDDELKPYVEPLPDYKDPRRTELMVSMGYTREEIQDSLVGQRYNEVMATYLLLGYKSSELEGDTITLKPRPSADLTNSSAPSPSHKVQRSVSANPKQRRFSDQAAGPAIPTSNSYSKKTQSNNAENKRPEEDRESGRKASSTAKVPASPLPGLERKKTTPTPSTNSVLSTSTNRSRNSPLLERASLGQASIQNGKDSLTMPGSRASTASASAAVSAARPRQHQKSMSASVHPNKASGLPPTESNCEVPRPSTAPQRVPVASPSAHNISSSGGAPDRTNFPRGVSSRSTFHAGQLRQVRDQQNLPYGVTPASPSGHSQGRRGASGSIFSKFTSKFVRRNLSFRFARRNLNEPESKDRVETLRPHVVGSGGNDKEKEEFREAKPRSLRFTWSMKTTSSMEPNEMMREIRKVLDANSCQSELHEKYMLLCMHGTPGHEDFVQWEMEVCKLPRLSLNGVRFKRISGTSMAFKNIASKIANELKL

[8] = target: Tyrosine-protein kinase SYK (Homo sapiens, UniProt P43405); test: Selectivity interaction (ActivX KiNativ screen (kinase selectivity in THP-1 cell lysates)) EUB0000639a SYK; format: subcellular; conditions: lysate, at 1 µM
[9] = target: Calcium/calmodulin-dependent protein kinase type 1 (Homo sapiens) (UniProt Q14012); test: Selectivity interaction (KinomeScan (DiscoverX)) EUB0000655a CAMK1; conditions: at 10 µM
Chain of Calcium/calmodulin-dependent protein kinase type 1 (Homo sapiens) (Q14012 whole entry, looked up): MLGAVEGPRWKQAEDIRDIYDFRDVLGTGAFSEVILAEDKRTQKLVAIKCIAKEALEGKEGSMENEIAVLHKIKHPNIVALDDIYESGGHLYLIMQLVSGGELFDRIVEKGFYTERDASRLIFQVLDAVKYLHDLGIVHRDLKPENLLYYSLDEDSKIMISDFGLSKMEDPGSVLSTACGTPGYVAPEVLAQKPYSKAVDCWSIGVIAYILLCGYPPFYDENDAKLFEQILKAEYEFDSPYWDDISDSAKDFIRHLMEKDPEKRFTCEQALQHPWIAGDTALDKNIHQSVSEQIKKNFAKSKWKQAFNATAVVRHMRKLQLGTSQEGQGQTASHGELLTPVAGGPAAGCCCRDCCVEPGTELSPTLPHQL

[10] = target: Calcium/calmodulin-dependent protein kinase type 1 (Homo sapiens) (UniProt Q14012); test: Selectivity interaction (Ambit KINOMEscan and KiNATiv profiling in Jurkat cells) EUB0000090b CAMK1; format: cell-based; conditions: at 1 µM

Chain of Mitogen-activated protein kinase kinase kinase 20 (Homo sapiens) (Q9NYL2 2-800 limits assumed): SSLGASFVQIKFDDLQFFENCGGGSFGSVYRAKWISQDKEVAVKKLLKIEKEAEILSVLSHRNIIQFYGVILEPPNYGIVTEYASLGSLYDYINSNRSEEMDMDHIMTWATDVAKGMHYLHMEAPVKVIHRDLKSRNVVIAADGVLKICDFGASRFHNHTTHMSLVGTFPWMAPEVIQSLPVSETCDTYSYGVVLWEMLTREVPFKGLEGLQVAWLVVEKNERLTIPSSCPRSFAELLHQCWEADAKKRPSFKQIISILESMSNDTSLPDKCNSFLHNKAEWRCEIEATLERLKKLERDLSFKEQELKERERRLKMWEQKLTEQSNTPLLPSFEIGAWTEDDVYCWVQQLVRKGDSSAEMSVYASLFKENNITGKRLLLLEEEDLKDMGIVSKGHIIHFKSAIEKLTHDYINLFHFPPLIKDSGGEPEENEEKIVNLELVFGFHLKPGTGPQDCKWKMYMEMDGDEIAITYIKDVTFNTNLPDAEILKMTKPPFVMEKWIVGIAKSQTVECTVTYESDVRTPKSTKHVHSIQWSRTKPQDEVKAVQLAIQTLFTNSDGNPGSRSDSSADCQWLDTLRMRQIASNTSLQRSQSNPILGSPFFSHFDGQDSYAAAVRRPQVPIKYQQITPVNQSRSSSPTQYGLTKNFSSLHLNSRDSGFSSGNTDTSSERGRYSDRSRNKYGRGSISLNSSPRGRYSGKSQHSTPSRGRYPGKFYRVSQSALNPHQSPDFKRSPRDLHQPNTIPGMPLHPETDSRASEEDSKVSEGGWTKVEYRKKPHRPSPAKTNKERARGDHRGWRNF
Chain of Casein kinase II subunit alpha (P68400 whole entry, looked up): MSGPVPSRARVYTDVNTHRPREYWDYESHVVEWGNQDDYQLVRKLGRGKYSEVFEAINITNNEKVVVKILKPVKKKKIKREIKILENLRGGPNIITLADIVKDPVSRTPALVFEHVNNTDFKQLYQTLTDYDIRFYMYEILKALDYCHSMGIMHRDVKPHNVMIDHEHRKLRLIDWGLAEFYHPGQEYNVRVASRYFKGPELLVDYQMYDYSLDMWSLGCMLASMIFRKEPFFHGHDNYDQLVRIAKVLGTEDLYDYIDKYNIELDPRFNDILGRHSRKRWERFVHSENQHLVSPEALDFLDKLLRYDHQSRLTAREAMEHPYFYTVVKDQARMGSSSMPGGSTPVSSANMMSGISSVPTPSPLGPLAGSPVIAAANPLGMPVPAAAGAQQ

`COCC(=O)NC/C=C/c1ccc2ncnc(Nc3ccc(Oc4ccc(C)nc4)c(C)c3)c2c1` [CP-724714] was tested, and the % of control [1] was 87%.

`CN(C(=O)c1cnn2cccnc12)c1cc2c(cc1N1CCOCC1)C(=O)N(C[C@@H](F)C(C)(C)O)C2` was tested, and the dTM [2] was -0.4 K.

In the case of `Cc1cc(F)c(C(=O)Nc2cccc(-c3nncn3C(C)C)n2)cc1-n1cnc(C2CC2)c1`, the % of control [3] is reported as 96%.

`O=C(NOC[C@H](O)CO)c1ccc(F)c(F)c1Nc1ccc(I)cc1F` gave a % of control [4] of 70% and a % of control [5] of 97%.

`N#Cc1cccc(-c2c[nH]c3ncnc(N4CCOCC4)c23)c1` was tested, and the % of control [6] was 3.8% and the % of inhibition [7] was 41%.

Work on `CC[C@@H]1[C@H](F)C(=O)N[C@@H]1COc1nccc2cc(C(N)=O)c(OC)cc12` [ZIMLOVISERTIB] yielded a % of inhibition [8] of -0.8%.

`CN(C)CCOc1ccc(-c2nc(-c3ccncc3)c(-c3ccc4c(c3)CC/C4=N\O)[nH]2)cc1` gave a % of control [9] of 93%.

`CN(C)C/C=C/C(=O)Nc1ccc(C(=O)N2CCCC(Nc3ncc(Cl)c(-c4c[nH]c5ccccc45)n3)C2)cc1` (stereo not given) showed a % of control [10] of 93%.
